Experimental data: ChEMBL document CHEMBL4229563, “Identification of the First PPARα/γ Dual Agonist Able To Bind to Canonical and Alternative Sites of PPARγ and To Inhibit Its Cdk5-Mediated Phosphorylation” (J Med Chem, 2018)
One block for each compound: values may come before it. Calls of active or inactive are those of the source. The rule behind the calls is not given here.

Assays:
[1] = target: T1, Peroxisome proliferator-activated receptor gamma (Homo sapiens, UniProt P37231); assay: Transactivation of GAL4-tagged human PPARgamma LBD expressed in human HepG2 cells after 20 hrs by luciferase reporter gene assay; format: cell-based
T1 sequence (P37231 whole entry): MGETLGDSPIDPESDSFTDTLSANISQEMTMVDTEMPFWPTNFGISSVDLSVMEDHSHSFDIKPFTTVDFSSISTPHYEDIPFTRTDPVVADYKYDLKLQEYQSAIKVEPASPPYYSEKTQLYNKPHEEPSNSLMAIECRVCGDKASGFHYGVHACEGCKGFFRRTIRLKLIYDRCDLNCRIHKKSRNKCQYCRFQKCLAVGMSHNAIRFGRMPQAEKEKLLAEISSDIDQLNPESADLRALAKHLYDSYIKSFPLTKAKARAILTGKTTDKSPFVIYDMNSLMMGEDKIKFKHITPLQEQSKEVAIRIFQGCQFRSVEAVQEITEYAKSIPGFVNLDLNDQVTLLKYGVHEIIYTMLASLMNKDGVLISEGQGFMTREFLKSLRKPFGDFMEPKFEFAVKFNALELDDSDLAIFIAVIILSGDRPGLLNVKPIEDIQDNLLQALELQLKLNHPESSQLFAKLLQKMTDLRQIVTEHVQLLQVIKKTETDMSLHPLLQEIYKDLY

[2] = target: T2, Peroxisome proliferator-activated receptor alpha (Homo sapiens) (UniProt Q07869); assay: Transactivation of GAL4-tagged human PPARalpha LBD expressed in human HepG2 cells after 20 hrs by luciferase reporter gene assay relative to Wy-14,643; format: cell-based
T2 sequence (whole entry): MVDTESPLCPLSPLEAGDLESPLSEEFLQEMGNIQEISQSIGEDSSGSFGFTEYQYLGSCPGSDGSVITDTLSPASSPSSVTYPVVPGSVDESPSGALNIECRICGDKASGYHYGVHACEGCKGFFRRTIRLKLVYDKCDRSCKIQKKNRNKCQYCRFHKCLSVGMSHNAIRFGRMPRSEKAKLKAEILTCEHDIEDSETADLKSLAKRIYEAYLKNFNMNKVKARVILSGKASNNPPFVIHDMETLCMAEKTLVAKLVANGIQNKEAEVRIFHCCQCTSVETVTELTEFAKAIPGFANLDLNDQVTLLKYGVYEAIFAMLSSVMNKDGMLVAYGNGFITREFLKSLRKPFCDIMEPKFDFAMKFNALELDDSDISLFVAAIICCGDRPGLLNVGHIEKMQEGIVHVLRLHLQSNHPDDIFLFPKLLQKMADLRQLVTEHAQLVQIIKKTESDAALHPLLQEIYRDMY

[3] = target: T3, Peroxisome proliferator-activated receptor alpha (Homo sapiens, UniProt Q07869); assay: Transactivation of GAL4-tagged human PPARalpha LBD expressed in human HepG2 cells after 20 hrs by luciferase reporter gene assay; format: cell-based
T3 sequence (Q07869 whole entry): T2 sequence (whole entry)

[4] = target: T4, Peroxisome proliferator-activated receptor gamma (Mus musculus) (UniProt P37238); assay: Agonist activity at PPARgamma in mouse 3T3-L1 cells assessed as increase in pck1 RNA expression at 0.1 to 2.5 uM by qRT-PCR analysis; format: cell-based
T4 sequence (whole entry): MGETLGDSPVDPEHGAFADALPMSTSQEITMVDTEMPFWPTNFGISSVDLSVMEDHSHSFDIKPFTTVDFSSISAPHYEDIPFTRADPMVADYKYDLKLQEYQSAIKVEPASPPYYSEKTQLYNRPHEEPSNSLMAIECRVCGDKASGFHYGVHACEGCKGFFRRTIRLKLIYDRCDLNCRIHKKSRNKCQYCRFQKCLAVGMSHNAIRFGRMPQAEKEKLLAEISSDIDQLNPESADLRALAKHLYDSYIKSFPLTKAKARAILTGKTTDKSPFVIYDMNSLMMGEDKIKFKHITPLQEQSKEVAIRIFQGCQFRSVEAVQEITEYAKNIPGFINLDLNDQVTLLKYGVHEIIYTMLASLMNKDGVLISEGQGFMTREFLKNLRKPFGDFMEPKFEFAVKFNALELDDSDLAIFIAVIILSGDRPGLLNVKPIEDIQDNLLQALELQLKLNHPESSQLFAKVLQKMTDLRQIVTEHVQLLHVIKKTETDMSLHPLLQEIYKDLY

[5] = target: T4, Peroxisome proliferator-activated receptor gamma (Mus musculus); assay: Agonist activity at PPARgamma in mouse 3T3-L1 cells assessed as increase in glut4 RNA expression at 0.1 to 2.5 uM by qRT-PCR analysis; format: cell-based
[6] = target: T4, Peroxisome proliferator-activated receptor gamma (Mus musculus); assay: Agonist activity at PPARgamma in mouse 3T3-L1 cells assessed as increase in adipoq RNA expression at 0.1 to 2.5 uM by qRT-PCR analysis; format: cell-based
[7] = target: T1, Peroxisome proliferator-activated receptor gamma; assay: Synergistic agonist activity at human PPARgamma LBD assessed as biotin-labeled PGC1alpha (130 to 154 residues) co-activator recruitment after 1 hr in presence of 1 uM rosiglitazone by TR-FRET assay
[8] = target: T5, Peroxisome proliferator-activated receptor alpha (Mus musculus) (UniProt P23204); assay: Agonist activity at PPARalpha in mouse Hepa1-6 cells assessed as increase in cpt1a RNA expression at 1 to 5 uM by qRT-PCR analysis; format: cell-based
T5 sequence (whole entry): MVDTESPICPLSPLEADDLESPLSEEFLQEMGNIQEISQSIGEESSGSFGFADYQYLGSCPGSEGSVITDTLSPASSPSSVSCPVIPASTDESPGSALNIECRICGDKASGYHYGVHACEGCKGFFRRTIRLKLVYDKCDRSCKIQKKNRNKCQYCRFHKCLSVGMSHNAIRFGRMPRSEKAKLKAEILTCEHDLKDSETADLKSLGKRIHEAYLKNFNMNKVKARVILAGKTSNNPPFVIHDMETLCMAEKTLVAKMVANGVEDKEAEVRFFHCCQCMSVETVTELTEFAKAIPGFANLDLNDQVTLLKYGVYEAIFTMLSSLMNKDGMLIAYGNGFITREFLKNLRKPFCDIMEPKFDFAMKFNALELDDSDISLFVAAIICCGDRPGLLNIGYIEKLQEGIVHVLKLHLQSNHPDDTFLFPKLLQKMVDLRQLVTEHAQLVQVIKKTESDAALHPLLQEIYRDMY

[9] = target: T6, Peroxisome proliferator-activated receptor gamma (Homo sapiens) (UniProt P37231); assay: Agonist activity at human PPARgamma LBD assessed as induction of recruitment of biotin-labeled PGC1alpha (130 to 154 residues) co-activator at >1 uM after 1 hr by TR-FRET assay
T6 sequence (whole entry): T1 sequence (P37231 whole entry)

[10] = target: T4, Peroxisome proliferator-activated receptor gamma (Mus musculus); assay: Agonist activity at PPARgamma in mouse 3T3-L1 cells assessed as increase in pck1 RNA expression at 5 to 10 uM by qRT-PCR analysis; format: cell-based
[11] = target: T5, Peroxisome proliferator-activated receptor alpha (Mus musculus); assay: Agonist activity at PPARalpha in mouse Hepa1-6 cells assessed as increase in Acox1 RNA expression at 1 to 5 uM by qRT-PCR analysis; format: cell-based
[12] = target: T4, Peroxisome proliferator-activated receptor gamma (Mus musculus); assay: Agonist activity at PPARgamma in mouse 3T3-L1 cells assessed as increase in Gk RNA expression at 0.1 to 2.5 uM by qRT-PCR analysis; format: cell-based
[13] = target: T1, Peroxisome proliferator-activated receptor gamma; assay: Synergistic agonist activity at human PPARgamma LBD assessed as biotin-labeled PGC1alpha (130 to 154 residues) co-activator recruitment after 1 hr in presence of 0.37 uM rosiglitazone by TR-FRET assay
[14] = target: T6, Peroxisome proliferator-activated receptor gamma (Homo sapiens); assay: Transactivation of GAL4-tagged human PPARgamma LBD expressed in human HepG2 cells at 10^-9 to 10^-5 M after 20 hrs in presence of 5 uM PPARgamma antagonist GW9662 by luciferase reporter gene assay; format: cell-based
[15] = target: T4, Peroxisome proliferator-activated receptor gamma (Mus musculus); assay: Agonist activity at PPARgamma in mouse 3T3-L1 cells assessed as increase in CD36 RNA expression at 0.1 to 2.5 uM by qRT-PCR analysis; format: cell-based
[16] = target: T6, Peroxisome proliferator-activated receptor gamma (Homo sapiens); assay: Binding affinity wild type apo form of PPARgamma (unknown origin) assessed as inhibition of CDK5/p35-mediated PPARgamma phosphorylation at ser273 at 0.1 to 10 uM after 3.5 hrs by ELISA relative to rosiglitazone
[17] = target: T4, Peroxisome proliferator-activated receptor gamma (Mus musculus); assay: Agonist activity at PPARgamma in mouse 3T3-L1 cells assessed as increase in glut4 RNA expression at 5 to 10 uM by qRT-PCR analysis; format: cell-based
[18] = target: T4, Peroxisome proliferator-activated receptor gamma (Mus musculus); assay: Agonist activity at PPARgamma in mouse 3T3-L1 cells accessed as increase in 2-deoxy-D-glucose uptake at 10 uM treated 17 hrs prior to insulin stimulation; format: cell-based
3T3-L1 [19] = assay: Induction of lipid accumulation in mouse 3T3L1 cells at 0.1 to 2.5 uM by Oil Red O staining-based assay; format: functional, cell-based
3T3-L1 [20] = assay: Induction of cells lipid accumulation in mouse 3T3L1 cells at 10 uM by Oil Red O staining-based assay; format: functional, cell-based
[21] = target: T4, Peroxisome proliferator-activated receptor gamma (Mus musculus); assay: Agonist activity at PPARgamma in mouse 3T3-L1 cells assessed as increase in Suclg1 RNA expression at 0.1 to 2.5 uM by qRT-PCR analysis; format: cell-based
[22] = target: T4, Peroxisome proliferator-activated receptor gamma (Mus musculus); assay: Synergistic agonist activity at PPARgamma in mouse 3T3-L1 cells accessed as increase in 2-deoxy-D-glucose uptake at 10 uM in presence of 0.3 uM rosiglitazone dosed 17 hrs prior to insulin stimulation
[23] = target: T4, Peroxisome proliferator-activated receptor gamma (Mus musculus); assay: Agonist activity at PPARgamma in mouse 3T3-L1 cells assessed as increase in fabp4 RNA expression at 5 to 10 uM by qRT-PCR analysis; format: cell-based
[24] = target: T1, Peroxisome proliferator-activated receptor gamma; assay: Synergistic agonist activity at human PPARgamma LBD assessed as biotin-labeled PGC1alpha (130 to 154 residues) co-activator recruitment after 1 hr in presence of 10 uM rosiglitazone by TR-FRET assay
[25] = target: T4, Peroxisome proliferator-activated receptor gamma (Mus musculus); assay: Agonist activity at PPARgamma in mouse 3T3-L1 cells assessed as increase in adipoq RNA expression at 5 to 10 uM by qRT-PCR analysis; format: cell-based
[26] = target: T4, Peroxisome proliferator-activated receptor gamma (Mus musculus); assay: Agonist activity at PPARgamma in mouse 3T3-L1 cells assessed as increase in Idh3a RNA expression at 0.1 to 2.5 uM by qRT-PCR analysis; format: cell-based
[27] = target: T4, Peroxisome proliferator-activated receptor gamma (Mus musculus); assay: Agonist activity at PPARgamma in mouse 3T3-L1 cells assessed as increase in fabp4 RNA expression at 0.1 to 2.5 uM by qRT-PCR analysis; format: cell-based
[28] = target: T5, Peroxisome proliferator-activated receptor alpha (Mus musculus); assay: Agonist activity at PPARalpha in mouse Hepa1-6 cells assessed as increase in acadm RNA expression at 1 to 5 uM by qRT-PCR analysis; format: cell-based
3T3-L1 [29] = assay: Induction of lipid accumulation in mouse 3T3L1 cells at 5 uM by Oil Red O staining-based assay; format: functional, cell-based
3T3-L1 [30] = assay: Induction of lipid accumulation in mouse 3T3L1 cells at 2 uM by Oil Red O staining-based assay; format: functional, cell-based

SMILES: O=C(O)[C@H](Cc1ccc(-c2ccc(O[C@H](Cc3ccccc3)C(=O)O)cc2)cc1)Oc1ccc(-c2ccccc2)cc1
EC50 [1]: 18 µM
EC50 ([3]; read-out: EC50): 27 µM

SMILES: O=C(O)[C@H](Cc1ccccc1)Oc1ccc(-c2ccc(C[C@@H](Oc3ccc(-c4ccccc4)cc3)C(=O)O)cc2)cc1
EC50 [1]: 25 µM
EC50 ([3]; read-out: EC50): 9.5 µM

SMILES: CN(CCOc1ccc(CC2SC(=O)NC2=O)cc1)c1ccccn1 (stereo unspecified)
Activity (3T3-L1 [29]): Active
Activity (3T3-L1 [30]): Active

SMILES: O=C(O)[C@@H](Cc1ccc(-c2ccc(O[C@H](Cc3ccccc3)C(=O)O)cc2)cc1)Oc1ccc(-c2ccccc2)cc1
EC50 [1]: 15 µM
EC50 ([3]; hepg2): Not Active

The next lines start with results.

EC50 [1]: 0.89 µM
Emax [2]: 25%
EC50 ([3]; read-out: EC50): 2.6 µM
SMILES: O=C(O)[C@@H](Cc1ccc(-c2ccccc2)cc1)Oc1ccc(-c2ccccc2)cc1

Activity [4]: inactive
Activity [5]: inactive
Activity [6]: inactive
EC50 [1]: 0.12 µM
EC50 [7]: 2.85 µM
Activity [8]: Active
Activity [9]: Active
Activity [10]: inactive
Activity [11]: Active
Activity [12]: inactive
EC50 [13]: 3.69 µM
Activity [14]: Active
Activity [15]: inactive
Emax [2]: 68%
Activity [16]: Active
Activity [17]: inactive
Activity [18]: Active
Activity [21]: inactive
EC50 ([3]; read-out: EC50): 1.05 µM
Activity [22]: Active
Activity [23]: inactive
EC50 [24]: 9.78 µM
Activity [25]: inactive
Activity [26]: inactive
Activity [27]: inactive
Activity [28]: Active
SMILES: O=C(O)[C@H](Cc1ccc(-c2ccccc2)cc1)Oc1ccc(-c2ccccc2)cc1
Activity (3T3-L1 [19]): inactive
Activity (3T3-L1 [20]): inactive

EC50 [1]: 9.8 µM
EC50 ([3]; read-out: EC50): 5.9 µM
SMILES: O=C(O)[C@H](Cc1ccc(-c2ccc(O[C@@H](Cc3ccccc3)C(=O)O)cc2)cc1)Oc1ccc(-c2ccccc2)cc1
